This is an account of results in US20070042026A1, “Prophylactic and therapeutic treatment of topical and transdermal drug-induced skin reactions” (priority 2005, published 2007).

Series [1] deals with mouse skin. The note with it: cited from earlier work; for contact sensitization in a mouse skin model (mast cell degranulating agents): in vivo.
Series [2] has as its system mouse skin. Particulars: cited from earlier work.
For series [3] the following is noted: Rosmarinic acid 5%; cited from earlier work.
Series [4] can be described thus: DPPH* free-radical scavenging anti-oxidant assay. The note with it: absorbance at 595 nm, after 30 minutes of incubation at 25° C.; read-out: molar activity (EC50, concentration that lowers the zero time optical absorbance of DPPH by 50 percent). How it is done:
Solutions of test compounds were assayed for their antioxidant activity by the free-radical scavenging method that uses diphenylpicryl hydrazine (DPPH*) reagent as described previously (Bonina et al, 2003). In order to standardize the activity, we defined for each compound, an EC50 value as the concentration that lowers the zero time optical absorbance of DPPH at 595 nm by 50 percent measured after 30 minutes of incubation at 25° C.
In general terms: DPPH is a stable violet radical that fades when it is reduced.

In series [5] the test system is volar arm skin of volunteers. Put plainly: 24-hour occlusive patch (Finn chamber) anti-irritant test with 0.5% benzalkonium chloride carrier gels. In kind it is in vivo, human. The method, then:
Occlusive patch testing was conducted on extracts prepared by starch gel encapsulation in a oil-in water emulsion system previously described (Wille, 2003).
Anti-irritant assays: All carrier system gels were prepared with 0.5% benzalkonium chloride, a mild irritant. To test for anti-irritancy, the irritant-containing carrier gels were also loaded with the test botanical extracts (experimentals). The control and test gels were deposited (100 microliters) on 10 mm square circular filter paper discs and placed in side of Finn chambers (20 mm square), which were then applied to the volar arm skin of volunteers. The chambers were affixed to skin with non-allergic adhesive tape and left in place for 24 hours. Upon termination of the treatments, the chambers were removed and the skin gently wiped clean with moistened cotton swabs. The exposed skin was first examined for signs of erythema (redness) and induration (swelling), and skin sites photographed. The exposed skin sites were probed for skin capacitance (skin moisture levels) using a Corneometer instrument (Courage & Khazaka, Koln, Germany).

A further series concerns HaCat keratinocytes. As to the kind of experiment: Retinoid-stimulated autocrine clonal growth of HaCat keratinocytes (biochemical assay for anti-irritant activity). Particulars: 10 μM, 48 hours after treatment, retinoid-stimulated autocrine growth conditions. The format is cell-based, human. How it is done: Since retinoids irritate skin leading to epidermal hyperplasia, we have employed an in vitro cell culture method to detect antioxidants that act to inhibit retinoid-stimulated autocrine growth of human keratinocytes.
Method: An immortalized line of human epidermal kertatinocytes, HaCat keratinocytes, can be cultured in a serum-free culture medium. Sterile Petri dishes (35 mm^2) are seeded at 5,000 cells per cm^2 and placed in a humidifed CO2 incubator at 37° C. for 3-5 days or until the culture reaches about 30% confluent monolayer growth. The dishes are washed once with ice-cold serum-free media lacking EGF and insulin, and refed 2.5 ml of serum-free culture medium containing 5 ug/ml insulin and retinyl acetate (RA, 3×10^−8 M). Duplicate control dishes are fixed and stained with 0.2% crystal violet to record the amount of clonal growth prior to refeeding with fresh RA-containing medium. Test dishes refed RA and insulin are split into three groups in duplicate. Group A is refed on the RA plus insulin medium. Group B is refed RA plus insulin medium and a […] inhibitor (PD 153035), and Group C is refed medium containing RA plus insulin and from 0.1 to 5% of a hydroalcoholic botanical extract. All dishes are adjusted to have the same final concentration of alcohol (1%). All dishes are placed back in the incubator for 2 and 4 days. They are fixed and stained with 0.2% crystal violet. […]

Regarding `C=C(CC)C(=O)c1ccc(OCC(=O)O)c(Cl)c1Cl` [Ethacrynic acid], in the series with mouse skin [1] (delivery of the sensitizing drugs to mouse skin), the “prevention of contact sensitization due to Clonidine, Chlorpheniramine, Albuterol and Nadolol” value is on record as “effective”. Besides, the “prevention of skin irritation due to 2,4-dinitro-chlorobenzene, arachidonic acid, phorbol myristic acid, trans-retinoic acid and lactic acid” value in the series on mouse skin [2] (topical application to mouse) was “effective”.
As for `O=C(O)COc1ccccc1` [Phenoxyacetic acid], the “contact sensitization due to para-phenylenediamine” value in the series with mouse skin [1] (application of the hair dye to mouse skin) is “prevent contact sensitization”. Moreover, in the series on mouse skin [2] (mouse, in vivo), the “skin irritation due to a panel of known skin irritants including sodium lauryl sulfate” value was “block skin irritation”.
For the compound `O=C(/C=C/c1ccc(O)c(O)c1)O[C@H](Cc1ccc(O)c(O)c1)C(=O)O` [Rosmarinic acid], the “reduction of the irritating action of alpha-hydroxy acids (lactic and glycolic acids)” value in series [3] is listed as “over three-fold”.
For `COc1ccc(CCN(C)CCCC(C#N)(c2ccc(OC)c(OC)c2)C(C)C)cc1OC` (stereo not shown) [Verapamil], the “minimizing contact sensitization due to Nadolol” value in the series on mouse skin [1] (topical application of Nadolol to mouse skin) is “effective”.
For the compound `O=C1O[C@H]([C@@H](O)CO)C(O)=C1O` [ascorbic acid], the EC50 in series [4] amounted to 26 µM.
In the case of `CCCCCCCCCCCCCCCC(=O)OC[C@H](O)[C@H]1OC(=O)C(O)=C1O` [ascorbyl palmitate], in series [4], the EC50 amounted to 30 µM.
Consider `COc1cc(CNC(=O)CCCC/C=C/C(C)C)ccc1O` [capsaicin], for which, in the series on mouse skin [1], the “contact sensitization in a mouse skin model (mast cell degranulating agents)” value is given as “prevent contact sensitization”.
With `O=C(O)/C=C\c1c[nH]cn1` [cis-urocanic acid], the “contact sensitization in a mouse skin model (mast cell degranulating agents)” value in the series on mouse skin [1] is given as “prevent contact sensitization”.
For the compound `O=C(O)c1cc(O)c(O)c(O)c1` [gallic acid, 3,4,5-trihydroxybenzoic acid], the “effect on benzalkonium chloride induced skin irritation” value in series [5] (24 hour occlusion) is listed as “anti-irritant effect”. For the same compound, in series [5] (gallic acid alone, 24 hours of occlusion), the irritancy to skin entry is “not irritating to skin”. Besides, the skin hydration profile entry in series [5] (gallic acid alone, after 24 hours of occlusion) was “does not alter skin hydration profile”.
On to `O.O.O=c1c(O)c(-c2ccc(O)c(O)c2)oc2cc(O)cc(O)c12` [quercetin dihydrate], for which the “clonal growth relative to the untreated control” value with HaCat keratinocytes is “completely inhibited”. In addition, the EC50 in series [4] amounted to 86 µM.
Take `Cc1c(C)c2c(c(C)c1O)CC[C@@](C)(CCC[C@H](C)CCC[C@H](C)CCCC(C)C)O2` [vitamin E, alpha-tocopherol]: the EC50 in series [4] came to 46 µM.
